In patent US20250154099A1, “PREPARATION METHOD OF 2-PHENYLINDOLE DERIVATIVES AND APPLICATION THEREOF” (Shihezi University, priority 2022, published 2025):
In brackets after ≈: the same amount, converted by molar mass. Like-named read-outs stand apart in the source and are kept apart here.

Columns and labels:
Type in all cases: cell-based
[1] = system: Staphylococcus aureus BNCC186335; experiment: MIC by microdilution method, sensitive Staphylococcus aureus; settings: read-out: MIC Staphylococcus aureus
Source text: (§1) Used bacteria: including drug-resistant bacteria and sensitive bacteria: the used sensitive strains include Cryptococcus neoformans BNCC225501, Candida albicans BNCC186382, Aspergillus fumigatus Fresenius BNCC338385, Escherichia coli BNCC336902, Staphylococcus aureus BNCC186335 and Pseudomonas aeruginosa Migula BNCC337940, and the used drug-resistant Candida albicans is clinically isolated azole multi-drug resistant Candida albicans (CA10) donated by Qianfoshan Hospital in Shandong Province. The strains are stored in normal saline containing 20% glycerol at −80° C. for a long time. Before operation, the strains are lined and transferred to a YPD solid plate, and subjected to static culture at 30° C. for 24 h; single colonies are selected and transferred to a YPD liquid medium, and cultured at 200 rpm at 30° C. overnight; and the overnight cultured bacterial solution is inoculated into a new YPD liquid medium at a ratio of about 1:100, and subjected to shaking culture at 200 rpm at 30° C. for 4 h so that Candida albicans is in a logarithmic phase.
(§2) Culture medium: the culture medium used by the microdilution method is RPMI-1640 culture medium (Gibco).
(§3) 1.2 Operation and results of detection of minimum inhibitory concentration (MIC) of the compounds and the azole drugs by the microdilution method: the MIC of the synthesized compound and the azole drug fluconazole for the standard strains is detected by the microdilution method according to fungal sensitivity detection method (M27-A3) established by the Clinical and Laboratory Standards Institute (CLSI). Specific steps are as follows: the prepared strain concentration is adjusted to 0.5-2.5×10^3 CFU/mL by using RPMI-1640 medium. 200 μL of bacterial solution containing the highest concentration of the drug to be detected is added into the first well of a 96-well plate, and 100 μL of blank bacterial solution without drug is added into each of the other wells; the bacterial solution is diluted to a series of concentration gradients by a double gradient dilution method; the well plate is subjected to static culture at constant temperature of 35° C. for 24 h; after the absorbance (OD) of each concentration gradient at 570 nm is detected by a microplate reader and the absorbance of a blank medium is subtracted, the growth rate=dosing hole value/control hole value ×100%, the inhibition rate=1−growth rate, and the minimum concentration with the inhibition rate greater than 80% is the minimum inhibitory concentration (MIC) value.

[2] = system: Drug-resistant Candida albicans CA10; experiment: MIC by microdilution method, drug-resistant Candida albicans CA10; settings: clinically isolated azole multi-drug resistant strain CA10; 24 h
Source text: as §1, §2, §3

[3] = system: Candida albicans BNCC186382; experiment: MIC by microdilution method, sensitive Candida albicans; settings: for MIC: Candida albicans, read-out: MIC Candida albicans
Source text: as §1, §2, §3

[4] = system: Pseudomonas aeruginosa Migula BNCC337940; experiment: MIC by microdilution method, sensitive Pseudomonas aeruginosa Migula; settings: 24 h, read-out: MIC Pseudomonas aeruginosa Migula
Source text: as §1, §2, §3

[5] = system: Escherichia coli BNCC336902; experiment: MIC by microdilution method, sensitive Escherichia coli; settings: read-out: MIC Escherichia coli
Source text: as §1, §2, §3

[6] = system: Aspergillus fumigatus Fresenius BNCC338385; experiment: MIC by microdilution method, sensitive Aspergillus fumigatus Fresenius; settings: 24 h; for MIC: Aspergillus fumigatus, read-out: MIC Aspergillus fumigatus Fresenius
Source text: as §1, §2, §3

[7] = system: Cryptococcus neoformans BNCC225501; experiment: MIC by microdilution method, sensitive Cryptococcus neoformans; settings: for MIC: Cryptococcus neoformans, read-out: MIC Cryptococcus neoformans
Source text: as §1, §2, §3

Candida albicans CA10 = experiment: Checkerboard microdilution assay of compound combined with fluconazole, FICI model; settings: Candida albicans; CA10; fluconazole alone; read-out: MIC of azole (fluconazole) used separately
Procedure: The concentration of Candida albicans CA10 is adjusted to 0.5-2.5×10^3 CFU/mL by using RPMI-1640 medium, and the diluted bacterial solution is used for preparing a working solution of the compound and the azole drug with double concentration gradient. 50 μl of working solution of double concentration of azole drugs and working solution of double concentration of the compound to be detected at each concentration gradient are added in the longitudinal (A-H) direction and transverse (1-12) direction of the 96-well plate respectively, so that the final drug concentration range of fluconazole is 4-64 μg/ml, and the drug concentration range of the compound is 256-16 μg/ml. The 96-well plate is cultured in a constant temperature incubator at 35° C. for 24 h. The amount of viable bacteria is detected with an XTT cell proliferation assay kit, and the absorbance of each well at 490 nm wavelength is detected by the microplate reader. Growth rate=dosing well value/control well value×100%, and inhibition rate=1−growth rate. The MIC when the inhibition rate is about 80% is a break point of the combination of two drugs.
The combination data of the compound and the azole drug collected by the checkerboard microdilution assay are analyzed by an FICI (fractional inhibitory concentration index) model, and the interaction effects are evaluated.
The FICI model can be expressed by the following formula: […]
Wherein: MICA and MICB are MIC values of drug A and drug B used separately, while MICAB and MICBA are the concentrations of drug A and drug B corresponding to the minimum effective dose of the combination of drug A and drug B.

[8] = BNCC186335, sensitive strain, 35° C., 24 h, minimum concentration with inhibition rate greater than 80%
[9] = BNCC186382, sensitive strain, 35° C., 24 h, minimum concentration with inhibition rate greater than 80%
[10] = sensitive strain, 35° C., minimum concentration with inhibition rate greater than 80%
[11] = BNCC336902, sensitive strain, 35° C., 24 h, minimum concentration with inhibition rate greater than 80%
[12] = BNCC225501, sensitive strain, 35° C., 24 h, minimum concentration with inhibition rate greater than 80%
[13] = sensitive strain, 35° C., 24 h, minimum concentration with inhibition rate greater than 80%

| MIC [1, 8] [µg/mL] | MIC [3, 9] [µg/mL] | MIC [4, 10] [µg/mL] | MIC [5, 11] [µg/mL] | MIC [6, 10] [µg/mL] | MIC [7, 12] [µg/mL] | MIC (Candida albicans CA10) [µg/mL] | MIC Candida albicans [3, 13] [µg/mL] | MIC Aspergillus fumigatus Fresenius [6, 10] [µg/mL] | MIC Cryptococcus neoformans [7, 13] [µg/mL] | SMILES | MIC80 Drug-resistant Candida albicans CA10 [2] [µg/mL] | MIC ([1]; BNCC186335, 24 h) [µg/mL] | MIC ([3]; BNCC186382, 24 h) [µg/mL] | MIC [4] [µg/mL] | MIC ([5]; BNCC336902, 24 h) [µg/mL] | MIC [6] [µg/mL] | MIC ([7]; BNCC225501, 24 h) [µg/mL] |
| --- | --- | --- | --- | --- | --- | --- | --- | --- | --- | --- | --- | --- | --- | --- | --- | --- | --- |
| 256 (≈ 1150 µM) | 256 (≈ 1150 µM) | 256 (≈ 1150 µM) | 256 (≈ 1150 µM) | 256 (≈ 1150 µM) | 256 (≈ 1150 µM) |  |  |  |  | COc1ccc2[nH]c(-c3ccccc3)cc2c1 [Compound 18] | > 256 |  |  |  |  |  |  |
|  |  |  |  |  |  |  |  |  |  | O=[N+]([O-])c1cccc(-c2cc3ccccc3[nH]2)c1 [Compound 12] | > 256 | 256 (≈ 1070 µM) | 4 (≈ 16.8 µM) | 2 (≈ 8.39 µM) | 8 (≈ 33.6 µM) | 4 (≈ 16.8 µM) | 8 (≈ 33.6 µM) |
| 2 (≈ 3.44 µM) |  | 2 (≈ 3.44 µM) | 2 (≈ 3.44 µM) |  |  |  |  |  |  | [H]/N=C(/N)N[C@H]1[C@H](O)[C@@H](O)[C@H](O[C@@H]2O[C@@H](C)[C@](O)(C=O)[C@H]2O[C@@H]2O[C@@H](CO)[C@H](O)[C@@H](O)[C@@H]2NC)[C@@H](N/C(N)=N\[H])[C@@H]1O [Streptomycin, reference compound] |  |  |  |  |  |  |  |
|  |  |  |  |  |  |  |  |  |  | Clc1ccc(-c2cc3ccccc3[nH]2)cc1 [Compound 11] | > 256 | > 256 | > 256 | > 256 | > 256 | > 256 | > 256 |
| 32 (≈ 127 µM) | 32 (≈ 127 µM) | 8 (≈ 31.8 µM) | 256 (≈ 1020 µM) | 256 (≈ 1020 µM) | 256 (≈ 1020 µM) |  |  |  |  | COC(=O)c1ccc2cc(-c3ccccc3)[nH]c2c1 [Compound 20] | > 256 |  |  |  |  |  |  |
| 16 (≈ 75.7 µM) | 256 (≈ 1210 µM) | 256 (≈ 1210 µM) | 32 (≈ 151 µM) | 256 (≈ 1210 µM) | 8 (≈ 37.9 µM) |  |  |  |  | Fc1ccc2[nH]c(-c3ccccc3)cc2c1 [Compound 22] | > 256 |  |  |  |  |  |  |
|  | 2 (≈ 6.53 µM) |  |  | 2 (≈ 6.53 µM) | 2 (≈ 6.53 µM) | > 128 |  |  |  | OC(Cn1cncn1)(Cn1cncn1)c1ccc(F)cc1F [Fluconazole, fluconazole, reference compound] | > 128 |  |  |  |  |  |  |
|  |  |  |  |  |  |  |  |  |  | c1ccc2[nH]c(-c3ccc4c(c3)OCO4)cc2c1 [Compound 15] | > 256 | 256 (≈ 1080 µM) | 256 (≈ 1080 µM) | 16 (≈ 67.4 µM) | 256 (≈ 1080 µM) | 256 (≈ 1080 µM) | 256 (≈ 1080 µM) |
|  |  |  |  |  |  |  |  |  |  | FC(F)(F)c1ccc(-c2cc3ccccc3[nH]2)cc1 [Compound 13] | > 256 | 256 (≈ 980 µM) | 256 (≈ 980 µM) | 16 (≈ 61.2 µM) | 256 (≈ 980 µM) | 256 (≈ 980 µM) | 256 (≈ 980 µM) |
| 8 (≈ 31.8 µM) | 8 (≈ 31.8 µM) | 32 (≈ 127 µM) | 256 (≈ 1020 µM) | 16 (≈ 63.7 µM) | 256 (≈ 1020 µM) |  |  |  |  | COC(=O)c1ccc2[nH]c(-c3ccccc3)cc2c1 [Compound 19] | > 256 |  |  |  |  |  |  |
|  |  |  |  |  |  |  | 2 (≈ 2.16 µM) | 16 (≈ 17.3 µM) | 64 (≈ 69.3 µM) | C[C@@H]1[C@H](O)[C@@H](C)/C=C/C=C/C=C/C=C/C=C/C=C/C=C/[C@H](O[C@@H]2O[C@H](C)[C@@H](O)[C@H](N)[C@@H]2O)C[C@@H]2O[C@](O)(C[C@@H](O)C[C@@H](O)[C@H](O)CC[C@@H](O)C[C@@H](O)CC(=O)O[C@H]1C)C[C@H](O)[C@H]2C(=O)O [Amphotericin B, amphotericin B, reference compound] |  |  |  |  |  |  |  |
| 256 (≈ 1150 µM) | 256 (≈ 1150 µM) | 64 (≈ 287 µM) | 256 (≈ 1150 µM) | 256 (≈ 1150 µM) | 256 (≈ 1150 µM) |  |  |  |  | COc1ccc2cc(-c3ccccc3)[nH]c2c1 [Compound 3] | > 256 |  |  |  |  |  |  |
|  |  |  |  |  |  |  |  |  |  | Cc1ccc(-c2cc3ccccc3[nH]2)cc1 [Compound 8] | > 256 | 256 (≈ 1240 µM) | 256 (≈ 1240 µM) | 256 (≈ 1240 µM) | 8 (≈ 38.6 µM) | 256 (≈ 1240 µM) | 256 (≈ 1240 µM) |
| 256 (≈ 1240 µM) | 256 (≈ 1240 µM) | 256 (≈ 1240 µM) | 16 (≈ 77.2 µM) | 256 (≈ 1240 µM) | 256 (≈ 1240 µM) |  |  |  |  | Cc1ccc2[nH]c(-c3ccccc3)cc2c1 [Compound 16] | > 256 |  |  |  |  |  |  |
| 256 (≈ 941 µM) | 256 (≈ 941 µM) | 8 (≈ 29.4 µM) | 256 (≈ 941 µM) | 256 (≈ 941 µM) | 256 (≈ 941 µM) |  |  |  |  | Brc1ccc2cc(-c3ccccc3)[nH]c2c1 [Compound 23] | > 256 |  |  |  |  |  |  |
|  |  |  |  |  |  |  |  |  |  | Fc1ccc(-c2cc3ccccc3[nH]2)cc1 [Compound 10] | > 256 | > 256 | > 256 | > 256 | > 256 | > 256 | > 256 |
|  |  |  |  |  |  |  |  |  |  | COc1cccc(-c2cc3ccccc3[nH]2)c1 [Compound 1] | > 256 | 64 (≈ 287 µM) | 16 (≈ 71.7 µM) | 8 (≈ 35.8 µM) | 4 (≈ 17.9 µM) | 8 (≈ 35.8 µM) | 4 (≈ 17.9 µM) |
|  |  |  |  |  |  |  |  |  |  | Cc1cccc(-c2cc3ccccc3[nH]2)c1 [Compound 7] | > 256 | 8 (≈ 38.6 µM) | 256 (≈ 1240 µM) | 256 (≈ 1240 µM) | 8 (≈ 38.6 µM) | 256 (≈ 1240 µM) | 256 (≈ 1240 µM) |
| > 256 | > 256 | > 256 | > 256 | > 256 | > 256 |  |  |  |  | Clc1ccc2[nH]c(-c3ccccc3)cc2c1 [Compound 21] | > 256 |  |  |  |  |  |  |
|  |  |  |  |  |  |  |  |  |  | c1ccc(-c2cc3ccccc3[nH]2)cc1 [Compound 6] | > 256 | > 256 | > 256 | > 256 | > 256 | > 256 | 256 (≈ 1320 µM) |
